Results from patent US20050255537A1, “Method for monitoring treatment with a parathyroid hormone” (priority 1999, published 2005).

System: BSAP and PICP serum levels, NTX urine levels
Assay: Example 3 clinical trial of rhPTH(1-34) vs alendronate: bone markers
Assay type: in vivo, human
Conditions: alendronate 10 mg per day
Method: • Number of Subjects: • rhPTH(1-34): 73 enrolled, 51 finished. • Alendronate (Fosamax®): 73 enrolled, 57 finished. • Diagnosis and Inclusion Criteria: Women aged 65±8 years, postmenopausal for 19±19 years, selected for a baseline spine bone mineral density of 0.8±0.1 and a T value of −2.2. Dosage and Administration: • Test Product (blinded) • rhPTH(1-34): 40 μg/day, given subcutaneously • Reference (Control) Therapy (blinded) • Alendronate (Fosamax®): 10 mg per patient per day • Duration of Treatment: • rhPTH(1-34): 12-18 months, with follow up from time of withdrawal of drug to 18 months of study. • Alendronate: 12-18 months, with follow up from time of withdrawal of drug to 18 months of study. • Criteria for Evaluation: Spine x-ray, serum biological markers (calcium, bone-specific alkaline phosphatase, procollagen I carboxy-terminal propeptide); urine makers (calcium, N-telopeptide, fir deoxypyridinoline); 1,25-dihydroxyvitamin D; bone mineral density spine, hip, wrist, and total body.
Measures of BSAP, PICP, and NTX levels were determined for each patient through the course of therapy generally according to methods described above in Example 1.

NCCCC(O)(P(=O)(O)O)P(=O)(O)O [alendronate, reference compound]
PICP serum level (FIG. 8): a decrease in PICP was observed | NTX urine levels (FIG. 9): generally declined slightly during the first 6 months of the study and then remained diminished for the duration of the study | BSAP serum level (after about 4 months, FIG. 7): A decrease in BSAP level was observed
